# In ChEMBL document CHEMBL1133572, “Protease inhibitors: current status and future prospects” (J Med Chem, 2000):
# Residues, ends and D or L forms follow the SMILES beside them. *: point of attachment. Cbz = O=C(OCc1ccccc1)*; CHN2 = [N-]=[N+]=C*
# Experiments:
# [1] = biological target: T1, Neprilysin (Rattus norvegicus, UniProt P07861)
# T1 sequence (P07861 whole entry): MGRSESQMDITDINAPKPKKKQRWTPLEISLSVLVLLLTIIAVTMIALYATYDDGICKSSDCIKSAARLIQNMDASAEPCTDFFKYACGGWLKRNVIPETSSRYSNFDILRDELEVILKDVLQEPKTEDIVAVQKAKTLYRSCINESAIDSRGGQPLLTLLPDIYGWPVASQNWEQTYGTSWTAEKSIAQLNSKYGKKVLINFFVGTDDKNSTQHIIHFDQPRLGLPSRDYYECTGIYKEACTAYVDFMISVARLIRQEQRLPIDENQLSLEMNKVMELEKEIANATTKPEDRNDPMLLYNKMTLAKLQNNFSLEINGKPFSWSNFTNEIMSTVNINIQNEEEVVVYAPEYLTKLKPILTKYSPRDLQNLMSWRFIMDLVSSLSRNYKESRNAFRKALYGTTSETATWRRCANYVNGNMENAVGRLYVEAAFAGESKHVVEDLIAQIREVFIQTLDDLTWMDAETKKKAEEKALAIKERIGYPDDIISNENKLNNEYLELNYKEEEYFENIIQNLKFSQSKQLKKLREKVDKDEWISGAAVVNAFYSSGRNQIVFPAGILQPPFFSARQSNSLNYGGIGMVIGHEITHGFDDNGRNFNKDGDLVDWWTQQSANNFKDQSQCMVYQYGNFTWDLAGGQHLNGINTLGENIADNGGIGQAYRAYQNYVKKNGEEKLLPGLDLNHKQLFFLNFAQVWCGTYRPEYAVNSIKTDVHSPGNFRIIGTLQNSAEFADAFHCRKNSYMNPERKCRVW
# [2] = biological target: T2, Calpain-1 catalytic subunit (Homo sapiens, UniProt P07384); experiment: The binding affinity against calpain.
# T2 sequence (P07384 whole entry): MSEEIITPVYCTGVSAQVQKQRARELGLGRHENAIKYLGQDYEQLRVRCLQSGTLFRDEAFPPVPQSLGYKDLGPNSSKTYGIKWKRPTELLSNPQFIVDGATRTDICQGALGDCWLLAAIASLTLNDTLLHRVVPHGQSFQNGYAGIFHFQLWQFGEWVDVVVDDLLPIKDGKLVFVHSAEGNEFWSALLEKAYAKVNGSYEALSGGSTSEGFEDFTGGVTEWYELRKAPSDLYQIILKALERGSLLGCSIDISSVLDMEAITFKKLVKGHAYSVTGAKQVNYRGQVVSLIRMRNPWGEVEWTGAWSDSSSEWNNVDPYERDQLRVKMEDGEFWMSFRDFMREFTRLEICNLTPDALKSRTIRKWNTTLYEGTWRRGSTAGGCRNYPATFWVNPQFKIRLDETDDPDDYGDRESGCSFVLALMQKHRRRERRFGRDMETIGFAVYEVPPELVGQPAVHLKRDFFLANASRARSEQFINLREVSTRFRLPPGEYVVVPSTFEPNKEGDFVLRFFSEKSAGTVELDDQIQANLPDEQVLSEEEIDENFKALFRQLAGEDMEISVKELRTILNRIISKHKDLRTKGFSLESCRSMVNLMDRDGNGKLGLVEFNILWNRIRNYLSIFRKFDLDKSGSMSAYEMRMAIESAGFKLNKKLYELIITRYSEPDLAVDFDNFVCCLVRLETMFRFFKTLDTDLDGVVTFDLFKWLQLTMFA
# [3] = biological target: Cathepsin K (Homo sapiens, UniProt P43235); experiment: The apparent binding affinity against cathepsin K.; details: read-out: Ki app
# [4] = biological target: Cathepsin S (Homo sapiens, UniProt P25774); experiment: The apparent binding affinity against cathepsin S.; details: read-out: Ki app
# [5] = biological target: T3, Cathepsin B (Homo sapiens, UniProt P07858)
# [6] = biological target: T4, Procathepsin L (Homo sapiens, UniProt P07711)
# [7] = Oral bioavailability in dog; assay type: ADME, organism-based, Canis lupus familiaris; details: in vivo
# [8] = biological target: T5, Angiotensin-converting enzyme (Homo sapiens, UniProt P12821); experiment: oral activity against angiotensin -converting enzyme ( ACE) and neutral endopeptidase in mouse.
# [9] = The irreversible inhibitor activity by second order rate equation.; assay type: ADME
# [10] = biological target: T3, Cathepsin B; experiment: Inhibitory activity against cathepsin B (ip); assay type: organism-based
# [11] = biological target: T3, Cathepsin B; experiment: Inhibitory activity against cathepsin B (sc); assay type: organism-based
# [12] = biological target: T3, Cathepsin B; experiment: Inhibitory activity against cathepsin B (po); assay type: organism-based
# [13] = biological target: Coagulation factor X (Homo sapiens, UniProt P00742)
# [14] = biological target: T5, Angiotensin-converting enzyme
# [15] = biological target: T4, Procathepsin L; experiment: Inhibitory activity against cathepsin L, lysosomal cysteine protease
# [16] = biological target: T6, Serine protease 1 (Homo sapiens, UniProt P07477)
# [17] = biological target: T7, Caspase-1 (Homo sapiens, UniProt P29466)
# T7 sequence (P29466 whole entry): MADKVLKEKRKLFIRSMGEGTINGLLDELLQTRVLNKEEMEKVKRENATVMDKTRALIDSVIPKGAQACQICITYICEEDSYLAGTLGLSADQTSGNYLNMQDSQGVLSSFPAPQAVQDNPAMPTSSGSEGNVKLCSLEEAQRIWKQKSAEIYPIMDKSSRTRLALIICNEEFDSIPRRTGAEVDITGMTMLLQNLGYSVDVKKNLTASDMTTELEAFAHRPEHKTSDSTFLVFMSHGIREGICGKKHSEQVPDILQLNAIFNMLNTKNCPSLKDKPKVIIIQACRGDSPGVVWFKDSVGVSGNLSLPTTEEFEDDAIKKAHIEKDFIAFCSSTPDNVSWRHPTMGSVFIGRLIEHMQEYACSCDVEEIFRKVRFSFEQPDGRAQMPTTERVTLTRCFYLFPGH
# [18] = biological target: Matrilysin (Homo sapiens, UniProt P09237); experiment: Inhibition of matrix metalloprotease-7 (MMP-7).
# [19] = biological target: Stromelysin-1 (Homo sapiens, UniProt P08254)
# [20] = biological target: T8, Interstitial collagenase (Homo sapiens, UniProt P03956)
# T8 sequence (P03956 whole entry): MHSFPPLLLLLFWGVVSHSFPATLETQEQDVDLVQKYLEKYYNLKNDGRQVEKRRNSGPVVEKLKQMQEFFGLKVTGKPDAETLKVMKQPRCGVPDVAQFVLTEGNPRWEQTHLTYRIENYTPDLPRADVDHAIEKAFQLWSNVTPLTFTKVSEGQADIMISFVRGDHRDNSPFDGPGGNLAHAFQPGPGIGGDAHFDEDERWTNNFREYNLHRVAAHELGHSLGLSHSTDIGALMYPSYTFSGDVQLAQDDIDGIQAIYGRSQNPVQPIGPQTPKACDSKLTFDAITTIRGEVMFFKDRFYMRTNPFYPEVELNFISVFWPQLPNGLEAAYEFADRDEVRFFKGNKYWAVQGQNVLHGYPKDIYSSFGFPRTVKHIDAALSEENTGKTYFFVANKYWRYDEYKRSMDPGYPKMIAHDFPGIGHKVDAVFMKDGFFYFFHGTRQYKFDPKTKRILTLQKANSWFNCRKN
# [21] = biological target: Tryptase (Homo sapiens, UniProt Q9BZJ3+Q15661+Q9NRR2); experiment: Binding affinity against Tryptase.; assay type: protein assay
# [22] = Inhibitory concentration against Elastase
# [23] = biological target: T6, Serine protease 1; experiment: Inhibitory concentration against Trypsin
# [24] = biological target: Plasminogen (Rattus norvegicus, UniProt Q01177); experiment: Inhibitory concentration against Plasmin
# [25] = Inhibitory concentration against Chymotrypsinogen
# [26] = biological target: 72 kDa type IV collagenase (Homo sapiens, UniProt P08253)
# [27] = Oral bioavailability in human; assay type: ADME, organism-based; details: in vivo
# T5 sequence (P12821 whole entry): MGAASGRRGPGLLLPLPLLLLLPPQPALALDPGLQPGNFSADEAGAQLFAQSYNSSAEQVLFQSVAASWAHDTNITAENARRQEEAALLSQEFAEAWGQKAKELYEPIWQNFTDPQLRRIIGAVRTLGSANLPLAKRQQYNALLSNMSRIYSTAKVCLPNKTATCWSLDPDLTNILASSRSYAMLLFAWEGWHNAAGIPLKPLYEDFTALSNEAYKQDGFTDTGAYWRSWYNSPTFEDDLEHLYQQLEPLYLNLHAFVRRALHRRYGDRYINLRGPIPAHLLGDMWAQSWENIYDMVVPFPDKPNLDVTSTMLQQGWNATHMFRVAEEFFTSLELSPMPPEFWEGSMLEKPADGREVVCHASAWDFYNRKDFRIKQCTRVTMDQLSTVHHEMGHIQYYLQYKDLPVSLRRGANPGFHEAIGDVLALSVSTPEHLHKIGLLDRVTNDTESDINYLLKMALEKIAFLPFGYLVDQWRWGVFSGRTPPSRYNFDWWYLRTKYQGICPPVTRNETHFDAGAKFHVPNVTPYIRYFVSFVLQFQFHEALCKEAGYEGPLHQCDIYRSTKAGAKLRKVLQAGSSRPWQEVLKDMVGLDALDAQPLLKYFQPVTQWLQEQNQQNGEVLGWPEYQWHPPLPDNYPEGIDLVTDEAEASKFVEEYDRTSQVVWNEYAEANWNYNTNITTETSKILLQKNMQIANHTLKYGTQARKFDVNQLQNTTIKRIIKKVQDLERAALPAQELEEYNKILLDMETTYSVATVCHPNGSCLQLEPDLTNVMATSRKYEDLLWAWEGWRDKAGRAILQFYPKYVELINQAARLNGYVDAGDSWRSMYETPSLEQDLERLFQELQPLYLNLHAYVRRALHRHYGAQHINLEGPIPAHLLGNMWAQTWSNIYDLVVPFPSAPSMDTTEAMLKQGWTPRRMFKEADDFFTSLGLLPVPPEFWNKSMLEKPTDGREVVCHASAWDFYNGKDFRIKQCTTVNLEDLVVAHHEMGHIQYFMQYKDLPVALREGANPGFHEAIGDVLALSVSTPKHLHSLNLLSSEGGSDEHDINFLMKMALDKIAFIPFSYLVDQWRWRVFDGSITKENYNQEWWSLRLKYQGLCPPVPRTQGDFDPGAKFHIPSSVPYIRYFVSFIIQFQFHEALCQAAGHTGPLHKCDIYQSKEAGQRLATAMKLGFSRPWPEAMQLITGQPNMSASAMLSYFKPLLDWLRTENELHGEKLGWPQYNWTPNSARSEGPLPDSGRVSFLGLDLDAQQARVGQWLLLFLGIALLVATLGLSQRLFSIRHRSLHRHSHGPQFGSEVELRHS
# T4 sequence (P07711 whole entry): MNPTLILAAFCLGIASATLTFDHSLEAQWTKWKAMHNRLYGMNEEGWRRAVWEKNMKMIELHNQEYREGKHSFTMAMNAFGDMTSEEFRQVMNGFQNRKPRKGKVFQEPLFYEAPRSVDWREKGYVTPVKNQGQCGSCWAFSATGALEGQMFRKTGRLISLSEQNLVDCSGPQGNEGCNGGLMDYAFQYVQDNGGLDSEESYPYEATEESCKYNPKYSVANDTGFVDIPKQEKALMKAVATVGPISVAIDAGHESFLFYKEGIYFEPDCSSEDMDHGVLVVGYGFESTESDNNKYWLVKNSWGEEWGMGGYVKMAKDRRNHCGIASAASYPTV
# Chain of Stromelysin-1 (P08254 whole entry): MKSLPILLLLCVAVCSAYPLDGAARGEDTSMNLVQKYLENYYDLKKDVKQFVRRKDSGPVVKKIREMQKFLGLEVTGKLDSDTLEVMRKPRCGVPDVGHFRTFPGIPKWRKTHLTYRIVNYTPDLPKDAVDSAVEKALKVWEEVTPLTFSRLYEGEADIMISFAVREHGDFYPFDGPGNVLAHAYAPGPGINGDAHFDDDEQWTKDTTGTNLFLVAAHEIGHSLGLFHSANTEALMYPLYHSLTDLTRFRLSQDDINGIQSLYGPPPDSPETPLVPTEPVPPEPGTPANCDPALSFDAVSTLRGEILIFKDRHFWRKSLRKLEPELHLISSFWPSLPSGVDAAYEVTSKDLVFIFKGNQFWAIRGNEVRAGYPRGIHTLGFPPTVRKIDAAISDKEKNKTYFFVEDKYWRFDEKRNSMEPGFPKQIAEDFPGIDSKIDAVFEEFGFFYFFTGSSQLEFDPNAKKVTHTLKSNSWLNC
# T6 sequence (P07477 whole entry): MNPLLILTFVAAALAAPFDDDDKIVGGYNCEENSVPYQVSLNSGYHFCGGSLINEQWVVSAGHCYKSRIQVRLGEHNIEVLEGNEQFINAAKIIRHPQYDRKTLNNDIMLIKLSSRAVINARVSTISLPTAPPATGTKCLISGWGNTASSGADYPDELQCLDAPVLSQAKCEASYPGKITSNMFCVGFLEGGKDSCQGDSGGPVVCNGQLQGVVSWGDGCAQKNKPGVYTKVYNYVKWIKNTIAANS
# Chain of 72 kDa type IV collagenase (P08253 whole entry): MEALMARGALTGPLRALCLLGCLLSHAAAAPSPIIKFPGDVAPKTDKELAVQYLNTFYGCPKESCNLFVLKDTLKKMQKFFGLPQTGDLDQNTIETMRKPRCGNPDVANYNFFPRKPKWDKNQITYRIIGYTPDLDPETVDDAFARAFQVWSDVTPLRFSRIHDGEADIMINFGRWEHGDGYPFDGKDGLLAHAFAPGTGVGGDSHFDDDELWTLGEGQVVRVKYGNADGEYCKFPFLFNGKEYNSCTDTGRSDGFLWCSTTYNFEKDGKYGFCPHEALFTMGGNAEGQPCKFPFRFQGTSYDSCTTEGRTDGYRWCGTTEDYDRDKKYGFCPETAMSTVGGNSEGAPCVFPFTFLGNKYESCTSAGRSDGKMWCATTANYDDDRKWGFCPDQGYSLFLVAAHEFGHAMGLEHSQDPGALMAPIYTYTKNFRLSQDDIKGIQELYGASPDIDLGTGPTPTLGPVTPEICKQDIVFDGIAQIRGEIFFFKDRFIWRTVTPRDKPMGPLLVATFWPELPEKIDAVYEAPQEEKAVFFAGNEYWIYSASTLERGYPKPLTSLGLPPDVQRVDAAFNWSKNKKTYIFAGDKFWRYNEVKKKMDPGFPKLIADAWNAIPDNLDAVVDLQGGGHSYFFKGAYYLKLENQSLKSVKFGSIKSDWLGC
# Chain of Plasminogen (Q01177 97-581 limits assumed): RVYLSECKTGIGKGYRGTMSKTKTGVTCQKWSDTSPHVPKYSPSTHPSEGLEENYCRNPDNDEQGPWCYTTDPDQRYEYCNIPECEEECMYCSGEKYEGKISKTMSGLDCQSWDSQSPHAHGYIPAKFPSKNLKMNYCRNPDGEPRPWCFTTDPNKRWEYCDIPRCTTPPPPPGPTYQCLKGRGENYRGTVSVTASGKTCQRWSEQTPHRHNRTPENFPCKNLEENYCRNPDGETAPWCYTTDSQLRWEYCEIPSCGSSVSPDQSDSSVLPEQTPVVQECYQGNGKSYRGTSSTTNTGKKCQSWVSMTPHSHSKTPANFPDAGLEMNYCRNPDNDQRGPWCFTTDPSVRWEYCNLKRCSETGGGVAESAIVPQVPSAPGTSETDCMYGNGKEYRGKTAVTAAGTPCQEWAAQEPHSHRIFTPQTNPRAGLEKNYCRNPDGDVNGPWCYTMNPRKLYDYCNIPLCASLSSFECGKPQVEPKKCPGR
# Chain of Plasminogen (Q01177 582-812 limits assumed): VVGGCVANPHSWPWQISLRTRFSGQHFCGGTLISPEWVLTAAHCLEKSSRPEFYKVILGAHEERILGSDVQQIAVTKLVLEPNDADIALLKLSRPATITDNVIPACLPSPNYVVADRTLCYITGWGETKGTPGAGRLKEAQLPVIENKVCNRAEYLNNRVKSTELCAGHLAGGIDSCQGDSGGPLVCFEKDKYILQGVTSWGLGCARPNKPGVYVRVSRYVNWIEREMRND
# Chain of Cathepsin K (P43235 whole entry): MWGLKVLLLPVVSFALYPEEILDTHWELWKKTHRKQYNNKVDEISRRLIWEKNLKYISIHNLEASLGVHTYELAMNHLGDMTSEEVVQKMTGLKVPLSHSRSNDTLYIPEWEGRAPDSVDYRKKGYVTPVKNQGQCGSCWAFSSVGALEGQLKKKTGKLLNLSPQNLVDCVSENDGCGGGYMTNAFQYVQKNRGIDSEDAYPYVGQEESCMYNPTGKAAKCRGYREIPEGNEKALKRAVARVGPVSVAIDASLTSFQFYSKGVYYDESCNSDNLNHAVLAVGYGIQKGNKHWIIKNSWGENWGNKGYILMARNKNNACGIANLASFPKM
# Chain of Coagulation factor X (P00742 41-179 limits assumed): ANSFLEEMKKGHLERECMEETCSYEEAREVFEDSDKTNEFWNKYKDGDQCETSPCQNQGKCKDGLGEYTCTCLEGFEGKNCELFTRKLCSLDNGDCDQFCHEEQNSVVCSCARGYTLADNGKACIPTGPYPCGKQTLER
# Chain of Coagulation factor X (P00742 235-488 limits assumed): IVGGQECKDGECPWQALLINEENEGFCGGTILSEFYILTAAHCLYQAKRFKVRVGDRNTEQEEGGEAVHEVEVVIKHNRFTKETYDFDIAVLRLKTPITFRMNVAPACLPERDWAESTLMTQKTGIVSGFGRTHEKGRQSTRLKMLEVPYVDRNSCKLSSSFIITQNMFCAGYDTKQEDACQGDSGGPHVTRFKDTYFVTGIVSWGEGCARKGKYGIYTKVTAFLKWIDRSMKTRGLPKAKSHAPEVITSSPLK
# Chain of Cathepsin S (P25774 whole entry): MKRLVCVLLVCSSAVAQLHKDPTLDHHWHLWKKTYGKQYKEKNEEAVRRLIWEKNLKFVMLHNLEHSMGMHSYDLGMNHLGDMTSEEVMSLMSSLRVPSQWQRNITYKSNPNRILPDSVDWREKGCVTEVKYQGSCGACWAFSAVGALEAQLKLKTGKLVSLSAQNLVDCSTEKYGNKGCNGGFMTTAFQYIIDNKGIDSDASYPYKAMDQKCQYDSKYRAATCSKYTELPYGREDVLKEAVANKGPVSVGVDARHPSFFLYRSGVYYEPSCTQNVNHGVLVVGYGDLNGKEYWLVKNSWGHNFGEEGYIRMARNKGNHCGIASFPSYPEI
smiles,measurement,setting,value
COCCOCC(CC1(C(=O)N[C@H]2CC[C@@H](C(=O)O)CC2)CCCC1)C(=O)Oc1ccc2c(c1)CCC2 (stereo not given in full),IC50,[1],28 nM
CC[C@H](NC(=O)[C@H](CC(C)C)NC(=O)OCc1ccccc1)C(=O)C(=O)NCCCN1CCOCC1,Ki,[2],41000 nM
CC(C)C[C@H](C(=O)NCC(=O)CNS(=O)(=O)c1ccc(Oc2ccccc2)cc1)c1cccc(-c2ccccc2)c1,Ki,[3],1.4 nM
same,Ki,[4],910 nM
same,Ki,[5],> 10000 nM
same,Ki,[6],> 1000 nM
NC1CCC(CNC(=O)[C@@H]2CCCN2C(=O)[C@H](N)C(C2CCCCC2)C2CCCCC2)CC1 (stereo not given in full),bioavailability,[7],90%
CC(=O)SC[C@@H](Cc1ccc2c(c1)OCO2)C(=O)N[C@@H](C)C(=O)OCc1ccccc1,ED50,[8],0.5 mg/kg
CC(C)C[C@H](NC(=O)N1CCNCC1)C(=O)N[C@H](C/C=C/S(=O)(=O)c1ccccc1)CCc1ccccc1,K second,[9],5.7 M⁻¹ s⁻¹
Cc1cc(C)c(C(=O)OCC(=O)[C@H](CCCCN)NC(=O)[C@H](Cc2ccccc2)NC(=O)OCc2ccccc2)c(C)c1,ED50,[10],5 mg/kg
same,ED50,[11],2.4 mg/kg
same,ED50,[12],18 mg/kg
N=C(N)c1cccc(-c2cccc([C@H](CCCNc3ccncc3)C(=O)O)c2)c1,IC50,[13],270 nM
CCCCc1nc(Cl)c(CO)n1Cc1ccc(-c2ccccc2-c2nn[nH]n2)cc1 [LOSARTAN],IC50,[14],19 nM
[N-]=[N+]=CC(=O)[C@H](Cc1ccccc1)NC(=O)[C@H](Cc1ccccc1)NC(=O)OCc1ccccc1 (Cbz-Phe-Phe-CHN2),IC50,[15],50 nM
CC1=CCN(C(=O)[C@H](Cc2ccc(C(=N)N)cc2)NS(=O)(=O)c2ccc3c(c2)CN(C)CC3)[C@@H](C(=O)O)C1,Ki,[16],0.46 nM
same,bioavailability,[7],45%
O=CC(Cc1ccccc1)NC(=O)C(Cc1ccccc1)NC(=O)OCc1ccccc1 (stereo not drawn) (Cbz-Phe-Phe-aldehyde; configuration not given here),IC50,[15],0.74 nM
O=C(NC1CCC[C@H]2CCC[C@@H](C(=O)O)N2C1=O)[C@@H](S)Cc1ccccc1 (stereo not given in full),IC50,[14],5 nM
same,IC50,[1],8 nM
CC(=O)N[C@@H](CC(=O)O)C(=O)N[C@H]1CCC[C@H]2SC[C@@H](C(=O)N[C@H]3CC(=O)OC3O)N2C1=O (stereo not given in full),IC50,[17],10400 nM
O=C(NO)C1(CS(=O)(=O)c2ccc(Oc3ccc(Cl)cc3)cc2)CCOCC1 [CTS-1027],Ki,[18],1200 nM
same,Ki,[19],9.3 nM
same,Ki,[20],590 nM
NCc1ccc(CNC(=O)CNC(=O)OCc2ccc(COC(=O)NCC(=O)NCc3ccc(CN)cc3)cc2)cc1,Ki,[16],84000 nM
same,Ki,[21],0.6 nM
CC1(C)CCCC(NC(=O)[C@@H](S)Cc2ccccc2)C(=O)N1CC(=O)O (stereo not given in full),IC50,[14],12 nM
same,IC50,[1],63 nM
CC(=O)OCCC/C(=C1/SC(=S)N(CC(=O)O)C1=O)c1ccc(Br)cc1,IC50,[22],> 50 µg/mL
same,IC50,[23],39900 nM
same,IC50,[24],> 109000 nM
same,IC50,[25],15.6 µg/mL
CCOC(=O)[C@H](CCc1ccccc1)N[C@H]1CCc2ccccc2N(CC(=O)O)C1=O [BENAZEPRIL],IC50,[14],1.7 nM
CCOC(=O)[C@H](CCc1ccccc1)N[C@@H](C)C(=O)N1[C@H](C(=O)O)C[C@@H]2CCC[C@@H]21,IC50,[14],4 nM
COC(=O)[C@H](Cc1cccc(C(=N)N)c1)[C@@H](/C=C/c1ccccc1)NC(=O)c1ccc(-c2ccc(OC)c(OC)c2)cc1,IC50,[13],30 nM
C[C@H](CSC(=O)c1ccccc1)C(=O)N1C[C@@H](Sc2ccccc2)C[C@H]1C(=O)O [ZOFENOPRIL],IC50,[14],0.4 nM
CC(/C=C/C=C/c1ccccc1)=C1/SC(=S)N(CC(=O)O)C1=O,IC50,[22],21.6 µg/mL
same,IC50,[23],36500 nM
same,IC50,[24],> 145000 nM
same,IC50,[25],10.8 µg/mL
CNC(=O)[C@@H]1CCCCN(C(=O)OC(C)(C)C)CCC[C@H](C(=O)NO)[C@@H](CC(C)C)C(=O)N1,Ki,[19],< 1 nM
same,Ki,[20],< 1 nM
same,Ki,[26],< 3 nM
CC(C)C[C@@H](C=O)NC(=O)[C@H](CC(C)C)NC(=O)[C@H](CC(C)C)NC(=O)OCc1ccccc1 [MG-132] (Cbz-Leu-Leu-Leu-aldehyde),Ki,[3],1.4 nM
CC(C)C[C@H](NC(=O)OCc1ccccc1)C(=O)NC1CCN(S(=O)(=O)c2ccc(Oc3ccccc3)cc2)CC1=O (stereo not given in full),Ki,[5],> 1000 nM
same,Ki,[6],> 1000 nM
CNC(=O)[C@@H](Cc1c(F)c(F)c(F)c(F)c1F)NC(=O)Nc1nnc(S)s1,Ki,[26],3000 nM
CC(C)C[C@H](NC(=O)[C@H]1O[C@@H]1C(=O)O)C(=O)N1CCC[C@H]1C(=O)OCc1ccccc1,K second,[9],8.7 M⁻¹ s⁻¹
CCC(=O)O[C@@H](O[P@](=O)(CCCCc1ccccc1)CC(=O)N1C[C@H](C2CCCCC2)C[C@H]1C(=O)O)C(C)C [FOSINOPRIL],IC50,[14],1 nM
N=C(N)NCCC[C@H](NC(=O)c1ccc2ccccc2c1O)C(=O)N1CCC[C@H]1C(N)=O,Ki,[21],840 nM
O=C(O)C(CCc1ccccc1)N[C@@H](Cc1ccccc1)C(=O)NC[C@H](O)C(=O)O (stereo not given in full),IC50,[14],> 10000 nM
same,IC50,[1],11 nM
CNC(=O)[C@@H](NC(=O)[C@H](CCCCOc1ccccc1)CP(=O)(O)Cc1ccc(Cc2ccccc2)cc1)C(C)(C)C,Ki,[19],30 nM
same,Ki,[20],> 30000 nM
CCCCNC(=O)[C@@H](C[C@H](O)[C@H](CC1CCCCC1)NC(=O)[C@H](Cc1c[nH]cn1)NC(=O)[C@H](Cc1ccccc1)CS(=O)(=O)C(C)(C)C)C(C)C,bioavailability,[27],< 1%
